From patent US20240199644A1, “Fused Ring Derivatives Useful as KRAS G12D Inhibitors” (JACOBIO PHARMACEUTICALS CO., LTD., priority 2021, published 2024) come the findings set out here.

What is called IC50 is the midpoint of a concentration-inhibition curve. The low end stands for greater potency in that assay, the high end for weaker potency in that assay.

In experiment [1] the target is GppNp-loaded HIS-KRAS(G12D, aa 1-169) / cRAF RBD (Homo sapiens (Human), UniProt P01116, G12D). The experiment can be described thus: GTP-KRAS and cRAF interaction assay. The format is biochemical. Conditions: HTRF; 2.0 nM GppNp-loaded HIS-KRAS(G12D), 35 nM cRAF RBD, 100 μM GTP, 2 hours at 25° C. On the procedure:
GppNp-loaded HIS-KRAS(G12D, aa 1-169) was pre-incubated with a compound in the presence of 200 μM GTP in a 384-well plate (Greiner) for 15 min, then cRAF RBD(GST tag, aa 50-132, CreativeBioMart), MAb Anti GST-d2 (Cisbio) and MAb Anti 6HIS-Tb cryptate Gold (Cisbio) were added to the assay wells (Final concentration: 2.0 nM GppNp-loaded HIS-KRAS(G12D), 100 μM GTP, 35 nM cRAF RBD, 1 μg/mL MAb Anti GST-d2, 52.5 ng/mL MAb Anti 6HIS-Tb cryptate Gold) and incubated for 2 hours at 25° C. Wells containing same percent of DMSO served as vehicle control, and wells without KRAS served as low control. HTRF signals were read on Tecan Spark multimode microplate reader and HTRF ratios were calculated under manufacturer's instructions. The percent of activation of compounds treated wells were normalized between vehicle control and low control. Then the data were analyzed using a 4-parameter logistic model to calculate IC50 values.
A general note: Time-resolved FRET reads energy transfer from a long-lived donor to a nearby acceptor.

Experiment [2] deals with GDP-loaded HIS-KRAS(G12D, aa 1-169) (Homo sapiens (Human), UniProt P01116, G12D). The experiment can be described thus: SOS1 catalyzed nucleotide exchange assay. The format is biochemical. Conditions: TR-FRET; 1.5 nM GDP-loaded HIS-KRAS(G12D), 0.5 μM SOS1 ExD, 4 hours at 25° C. Here is the method:
GDP-loaded HIS-KRAS(G12D, aa 1-169) was pre-incubated with a compound in the presence of 10 nM GDP in a 384-well plate (Greiner) for 15 min, then purified SOS1 ExD(Flag tag, aa 564-1049), BODIPY™ FL GTP (Invitrogen) and MAb(monoclonal antibody) Anti 6HIS-Tb cryptate Gold (Cisbio) were added to the assay wells (Final concentration: 1.5 nM GDP-loaded HIS-KRAS(G12D), 5 nM GDP, 0.5 μM SOS1 ExD, 80 nM BODIPY™ FL GTP, 52.5 ng/mL MAb Anti 6HIS-Tb cryptate Gold) and incubated for 4 hours at 25° C. Wells containing same percent of DMSO served as vehicle control, and wells without KRAS served as low control. TR-FRET signals were read on Tecan Spark multimode microplate reader. The parameters were F486: Excitation 340 nm, Emission 486 nm, Lag time 100 μs, Integration time 200 μs; F515: Excitation 340 nm, Emission 515 nm, Lag time 100 μs, Integration time 200 μs. TR-FRET ratios for each individual wells were calculated by equation: TR-FRET ratio=(Signal F515/Signal F486)*10000. The percent of activation of compounds treated wells were normalizedbetween vehicle control and low control. Then the data were analyzed using a 4-parameter logistic model to calculate ICso values.

Chain of GDP-loaded HIS-KRAS(G12D, aa 1-169) (P01116 other isoform, or with tags, fused parts or gaps G12D): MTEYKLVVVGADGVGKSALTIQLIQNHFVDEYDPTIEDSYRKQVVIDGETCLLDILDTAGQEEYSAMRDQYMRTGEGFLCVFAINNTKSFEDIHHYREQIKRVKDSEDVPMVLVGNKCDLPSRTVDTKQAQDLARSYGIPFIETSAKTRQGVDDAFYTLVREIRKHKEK
Chain of GppNp-loaded HIS-KRAS(G12D, aa 1-169) / cRAF RBD (P01116 other isoform, or with tags, fused parts or gaps G12D): as above

Turning to `C#Cc1c(F)ccc2cc(O)cc(-c3c(Cl)c4c5c(nc(OC[C@@]67CCCN6C[C@H](F)C7)nc5c3F)N3C[C@H]5CC[C@H](N5)[C@H]3CO4)c12` (atropisomer, axis not shown) [Compound 12], the IC50 is 154 nM in experiment [1] and 35.8 nM in experiment [2].

As for `C#Cc1c(F)ccc2cc(O)cc(-c3c(Cl)c4c5c(nc(OC[C@@]67CCCN6C[C@H](F)C7)nc5c3F)N3C[C@H]5CC[C@H](N5)[C@H]3CO4)c12` (atropisomer, axis not shown) [Compound 13], the IC50 in experiment [1] worked out at 4.8 nM; in experiment [2], 0.691 nM.

On to `CN(C)CC1(COc2nc3c4c(c(Cl)c(-c5cc(O)cc6ccccc56)cc4n2)OC[C@@H]2CNCCN32)CC1` [Compound 1], for which the values for the half-inhibitory concentration (IC50) in experiment [1] and in experiment [2] were 31400 nM and 3860 nM, respectively.

As to `CN(C)CC1(COc2nc3c4c(c(Cl)c(-c5cc(O)cc6ccccc56)cc4n2)OC[C@H]2CNCCN32)CC1` [Compound 2], the results for the half-maximal inhibitory concentration (IC50) in experiment [1] and in experiment [2] were 23300 nM and 880 nM, respectively.

For the compound `Oc1cc(-c2cc3nc(OC[C@@]45CCCN4C[C@H](F)C5)nc4c3c(c2Cl)OC[C@H]2CNCCN42)c2ccccc2c1` [Compound 3], the values for the IC50 in experiment [1] and in experiment [2] were 11600 nM and 294 nM, respectively.

For the compound `C#Cc1cccc2cc(O)cc(-c3cc4c5c(nc(OCC6(CN7CCOCC7)CC6)nc5c3F)N3C[C@H]5CC[C@H](N5)[C@@H]3CO4)c12` [Compound 4], the IC50 stood at 378 nM in experiment [1] and 2.5 nM in experiment [2].

Turning to `C#Cc1cccc2cc(O)cc(-c3cc4c5c(nc(OCC6(CN7CCOCC7)CC6)nc5c3F)N3C[C@H]5CC[C@H](N5)[C@H]3CO4)c12` [Compound 5], the IC50 in experiment [1] was found to be 20.5 nM; in experiment [2], 1.16 nM.

`C#Cc1c(F)ccc2cc(O)cc(-c3nc4c5c(nc(OC[C@@]67CCCN6C[C@H](F)C7)nc5c3F)N3C[C@H]5CC[C@H](N5)[C@H]3CO4)c12` [Compound 6]: the IC50 in experiment [1] is 3.9 nM; in experiment [2] it was 0.23 nM.

With `C#Cc1c(F)ccc2cc(O)cc(-c3nc4c5c(nc(OCC6(CN7CCOCC7)CC6)nc5c3F)N3C[C@H]5CC[C@H](N5)[C@H]3CO4)c12` [Compound 7], the figures for the IC50 in experiment [1] and in experiment [2] were 9.8 nM and 0.659 nM, respectively.

With `C#Cc1c(F)ccc2cc(O)cc(-c3nc4c5c(nc(OC[C@@]67CCCN6C[C@H](F)C7)nc5c3F)N3C[C@@H]5CC[C@@H](N5)[C@@H]3CO4)c12` [Compound 8], the IC50 was 280 nM in experiment [1] and 32.6 nM in experiment [2].

With `C#Cc1c(F)ccc2cc(O)cc(-c3nc4c5c(nc(OC[C@@]67CCCN6C[C@H](F)C7)nc5c3F)N3C[C@@H]5CC[C@@H](N5)[C@H]3CO4)c12` [Compound 9], the IC50 turned out to be 2240 nM in experiment [1] and 81 nM in experiment [2].

Take `C#Cc1c(F)ccc2cc(O)cc(-c3cc4c5c(nc(OC[C@@]67CCCN6C[C@H](F)C7)nc5c3F)N3C[C@H]5CC[C@H](N5)[C@H]3CO4)c12` [Compound 10]: the IC50 in experiment [1] worked out at 5.4 nM; in experiment [2], 0.452 nM.

For `C#Cc1cccc2cc(O)cc(-c3cc4nc(OC[C@@]56CCCN5C[C@H](F)C6)nc5c4c(c3Cl)OC[C@@H]3[C@@H]4CC[C@H](CN53)N4)c12` [Compound 11], the IC50 in experiment [1] turned out to be 184 nM; in experiment [2] it was 7.24 nM.

As for `C#Cc1c(F)ccc2cc(O)cc(-c3cc4c5c(nc(OCC6(CN7CCOCC7)CC6)nc5c3F)N3C[C@H]5CC[C@H](N5)[C@H]3CO4)c12` [Compound 14], the results for the IC50 in experiment [1] and in experiment [2] were 9.2 nM and 1.15 nM, respectively.

As for `C#Cc1cccc2cc(O)cc(-c3cc4c5c(nc(OCC6(CN7CCOCC7)CC6)nc5c3F)N3[C@@H]5CN[C@@H](C5)[C@@H]3CO4)c12` [Compound 15], the IC50 stood at 251 nM in experiment [1] and 11 nM in experiment [2].

As for `C#Cc1cccc2cc(O)cc(-c3cc4c5c(nc(OCC6(CN7CCOCC7)CC6)nc5c3F)N3[C@H]5CN[C@H](C5)[C@@H]3CO4)c12` [Compound 16], the IC50 came to 660 nM in experiment [1] and 86.1 nM in experiment [2].
